Results reported in PMC11380953, “Multivalent, calcium-independent binding of surfactant protein A and D to sulfated glycosaminoglycans of the alveolar epithelial glycocalyx” (American Journal of Physiology - Lung Cellular and …, 2024).

Target: T1, hSP-A (Homo sapiens, UniProt Q8IWL1+Q8IWL2)
T1 construct: Human PAP patient, BAL isolated; from tissue; host or cells: bronchoalveolar lavage fluid of a patient with pulmonary alveolar proteinosis
Assay: Collectin-based binding assay (immobilized hSP-A, WGA-AlexaFluor488 detection)
Settings: for normalized fluorescence of WGA bound to GAG on immobilized hSP-A: absence of calcium (Fig. 4B, C); for binding of immobilized hSP-A to GAG (normalized fluorescence): presence of 5 mM calcium (Fig. 4B, C)
Procedure: hSP-A was immobilized in a black 96-well plate (655076, Greiner BIO-One, Frickenhausen, Germany) by coating the plate with a specific anti-SP-A antibody (Abcam, abab190087, Cambridge, UK) at a concentration of 0.5 µg/mL in coating buffer [0.1 M NaHCO3 buffer (pH 9.6)] at 4°C overnight. Afterward, the plate was blocked with 100 µL Synblock (Bio-Rad, BUF034B, California) for 2 h at room temperature. Then, hSP-A was added at 14 ng/well and incubated with the antibody for 1 h at room temperature in washing buffer (5 mM Tris, 0.9% NaCl, and 0.05% Tween-20) to immobilize it. After washing with washing buffer, different concentrations of HA or HS ranging from 10 mM to 1 nM were added in either washing buffer without calcium or with 5 mM CaCl2 and incubated with the immobilized protein for 1 h at room temperature. The following washing steps were performed with washing buffer containing no calcium or 5 mM CaCl2. To detect the GAGs bound to the protein, an AlexaFluor488-conjugated wheat germ agglutinin (WGA, W11261, Invitrogen, Massachusetts) was added at 50 µg/mL in washing buffer containing no calcium or 5 mM CaCl2 and incubated it for 30 min at room temperature protected from light. After washing with washing buffer with or without calcium, 100 µL of washing buffer without calcium was added to read the fluorescence of the bound WGA with an excitation filter at 485 nm and an emission filter at 520 nm in a plate reader (FLUOstar Omega, BMG Labtech, Ortenberg, Germany).
The data of the binding inhibition assay were analyzed in GraphPad Prism 9.5.1 using the “normalize” function and fitting to the nonlinear regression dose-response inhibition. The best fitting was achieved using the “[Inhibitor] versus response–variable slope (four parameters)” model. The fluorescence values from the collectin-based binding assay were normalized using the same “normalize” function in GraphPad, and the statistical test used was the “non-parametric Kruskal-Wallis” test. The statistical test used for the DMMB assay for GAG quantification was also the “non-parametric Kruskal-Wallis” test.

T1 sequence (Q8IWL2 21-248): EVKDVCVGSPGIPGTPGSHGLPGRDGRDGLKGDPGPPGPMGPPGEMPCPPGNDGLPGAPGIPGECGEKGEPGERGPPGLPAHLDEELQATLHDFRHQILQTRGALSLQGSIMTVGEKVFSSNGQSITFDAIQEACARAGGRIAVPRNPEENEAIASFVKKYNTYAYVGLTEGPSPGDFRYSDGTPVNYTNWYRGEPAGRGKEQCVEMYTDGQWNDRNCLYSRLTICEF
T1 sequence (Q8IWL1 21-248): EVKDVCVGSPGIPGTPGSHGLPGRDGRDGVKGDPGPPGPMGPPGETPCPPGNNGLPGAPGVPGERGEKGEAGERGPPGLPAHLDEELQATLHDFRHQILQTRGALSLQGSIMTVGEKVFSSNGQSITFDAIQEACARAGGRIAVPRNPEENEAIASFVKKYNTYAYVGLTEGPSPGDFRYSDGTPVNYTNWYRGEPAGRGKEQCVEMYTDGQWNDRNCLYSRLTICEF

Substance	normalized fluorescence of WGA bound to GAG on immobilized hSP-A	binding of immobilized hSP-A to GAG (normalized fluorescence)
heparan sulfate sodium [HS]	increased fluorescence	able to bind
hyaluronic acid sodium salt [HA]	no significant increase in fluorescence	able to bind
